Reference: the kinase profiling compilation of Christmann-Franck et al. (2016)

Columns and labels:
Assay in all cases: KINOMEscan competition binding
Conditions in all cases: compound 10.0 µM
MARK3 (human) = MARK3 (human) (UniProt P27448)
DSTYK (human) = DSTYK (human) (UniProt Q6XUX3)
EPHA8 (human) = EPHA8 (human) (UniProt P29322)
SLK (human) = SLK (human) (UniProt Q9H2G2)
[1] = target: JAK1 JH2 pseudokinase (human) (UniProt P23458)
NEK2 (human) = NEK2 (human) (UniProt P51955)
SIK2 (human) = SIK2 (human) (UniProt Q9H0K1)
TLK2 (human) = TLK2 (human) (UniProt Q86UE8)
LIMK1 (human) = LIMK1 (human) (UniProt P53667)
MAPK13 (human) = MAPK13 (human) (UniProt O15264)
STK25 (human) = STK25 (human) (UniProt O00506)
DDR2 (human) = DDR2 (human) (UniProt Q16832)
MAK (human) = MAK (human) (UniProt P20794)
MAK (human), sequence (P20794 whole entry, looked up): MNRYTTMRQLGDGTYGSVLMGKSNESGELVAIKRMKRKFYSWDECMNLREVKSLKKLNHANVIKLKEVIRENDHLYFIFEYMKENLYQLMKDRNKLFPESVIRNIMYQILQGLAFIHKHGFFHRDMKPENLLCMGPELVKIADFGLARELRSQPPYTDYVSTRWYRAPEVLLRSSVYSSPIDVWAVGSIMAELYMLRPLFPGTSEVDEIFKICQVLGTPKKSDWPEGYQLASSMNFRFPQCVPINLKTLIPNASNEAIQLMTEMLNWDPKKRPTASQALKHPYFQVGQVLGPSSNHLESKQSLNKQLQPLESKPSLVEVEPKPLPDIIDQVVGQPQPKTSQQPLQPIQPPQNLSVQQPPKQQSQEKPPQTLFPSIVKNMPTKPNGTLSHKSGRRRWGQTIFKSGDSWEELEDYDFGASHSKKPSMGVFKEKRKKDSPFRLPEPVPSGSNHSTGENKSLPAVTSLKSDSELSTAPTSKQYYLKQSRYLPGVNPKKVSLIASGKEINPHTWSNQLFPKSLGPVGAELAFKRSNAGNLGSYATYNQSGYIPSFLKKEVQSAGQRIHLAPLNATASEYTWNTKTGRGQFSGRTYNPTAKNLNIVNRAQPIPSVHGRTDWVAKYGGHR

PLK1 (human) = PLK1 (human) (UniProt P53350)
EPHA4 (human) = EPHA4 (human) (UniProt P54764)
SIK3 (human) = SIK3 (human) (UniProt Q9Y2K2)
MAP4K5 (human) = MAP4K5 (human) (UniProt Q9Y4K4)
AXL (human) = AXL (human) (UniProt P30530)
AXL (human), sequence (P30530 whole entry, looked up): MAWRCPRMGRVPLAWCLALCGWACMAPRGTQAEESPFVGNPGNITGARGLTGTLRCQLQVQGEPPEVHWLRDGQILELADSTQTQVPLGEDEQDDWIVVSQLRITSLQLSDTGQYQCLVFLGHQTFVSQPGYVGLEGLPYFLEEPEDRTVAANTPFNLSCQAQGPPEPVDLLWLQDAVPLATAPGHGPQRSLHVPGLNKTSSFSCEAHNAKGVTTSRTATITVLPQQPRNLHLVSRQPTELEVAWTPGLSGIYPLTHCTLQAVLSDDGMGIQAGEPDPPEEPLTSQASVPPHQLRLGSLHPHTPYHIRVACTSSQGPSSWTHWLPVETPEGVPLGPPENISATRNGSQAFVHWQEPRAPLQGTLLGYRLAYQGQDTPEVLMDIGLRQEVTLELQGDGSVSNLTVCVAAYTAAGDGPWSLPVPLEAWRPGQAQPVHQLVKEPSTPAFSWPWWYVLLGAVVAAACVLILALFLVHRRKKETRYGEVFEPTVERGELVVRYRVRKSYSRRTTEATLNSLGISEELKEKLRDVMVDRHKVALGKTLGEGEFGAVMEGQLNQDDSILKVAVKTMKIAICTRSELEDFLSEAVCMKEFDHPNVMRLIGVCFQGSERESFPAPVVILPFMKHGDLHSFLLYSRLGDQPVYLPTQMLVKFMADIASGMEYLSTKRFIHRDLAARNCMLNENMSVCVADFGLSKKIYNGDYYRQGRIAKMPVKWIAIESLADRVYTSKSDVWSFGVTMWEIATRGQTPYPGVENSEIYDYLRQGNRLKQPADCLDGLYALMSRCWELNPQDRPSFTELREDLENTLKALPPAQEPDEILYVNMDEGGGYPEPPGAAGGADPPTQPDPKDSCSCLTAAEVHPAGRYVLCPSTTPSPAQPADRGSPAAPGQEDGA

DDR1 (human) = DDR1 (human) (UniProt Q08345)
CDKL1 (human) = CDKL1 (human) (UniProt Q00532)
BRSK1 (human) = BRSK1 (human) (UniProt Q8TDC3)
BRSK1 (human), sequence (Q8TDC3 whole entry, looked up): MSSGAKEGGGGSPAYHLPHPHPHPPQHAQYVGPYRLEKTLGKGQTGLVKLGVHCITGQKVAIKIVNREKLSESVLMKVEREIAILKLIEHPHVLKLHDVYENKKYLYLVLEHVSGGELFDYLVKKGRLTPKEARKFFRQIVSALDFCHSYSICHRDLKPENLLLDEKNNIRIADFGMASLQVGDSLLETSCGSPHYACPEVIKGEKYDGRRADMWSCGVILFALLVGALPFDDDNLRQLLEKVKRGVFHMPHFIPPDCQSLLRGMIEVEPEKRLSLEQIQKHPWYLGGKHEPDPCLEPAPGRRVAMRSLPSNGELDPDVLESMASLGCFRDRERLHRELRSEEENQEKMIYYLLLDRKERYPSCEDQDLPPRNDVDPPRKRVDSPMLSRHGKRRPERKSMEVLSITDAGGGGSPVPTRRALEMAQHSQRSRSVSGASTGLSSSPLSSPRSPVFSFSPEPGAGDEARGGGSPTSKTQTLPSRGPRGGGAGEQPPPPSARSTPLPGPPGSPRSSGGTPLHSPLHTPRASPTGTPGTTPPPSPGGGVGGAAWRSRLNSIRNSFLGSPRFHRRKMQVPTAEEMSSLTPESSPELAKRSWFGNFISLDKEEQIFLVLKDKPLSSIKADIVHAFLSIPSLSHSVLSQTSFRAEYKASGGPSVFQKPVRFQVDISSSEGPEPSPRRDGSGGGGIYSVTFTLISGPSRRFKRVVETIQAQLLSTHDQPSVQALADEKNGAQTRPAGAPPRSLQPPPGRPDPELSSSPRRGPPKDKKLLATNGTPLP

MAPK15 (human) = MAPK15 (human) (UniProt Q8TD08)
MAPK15 (human), sequence (Q8TD08 whole entry, looked up): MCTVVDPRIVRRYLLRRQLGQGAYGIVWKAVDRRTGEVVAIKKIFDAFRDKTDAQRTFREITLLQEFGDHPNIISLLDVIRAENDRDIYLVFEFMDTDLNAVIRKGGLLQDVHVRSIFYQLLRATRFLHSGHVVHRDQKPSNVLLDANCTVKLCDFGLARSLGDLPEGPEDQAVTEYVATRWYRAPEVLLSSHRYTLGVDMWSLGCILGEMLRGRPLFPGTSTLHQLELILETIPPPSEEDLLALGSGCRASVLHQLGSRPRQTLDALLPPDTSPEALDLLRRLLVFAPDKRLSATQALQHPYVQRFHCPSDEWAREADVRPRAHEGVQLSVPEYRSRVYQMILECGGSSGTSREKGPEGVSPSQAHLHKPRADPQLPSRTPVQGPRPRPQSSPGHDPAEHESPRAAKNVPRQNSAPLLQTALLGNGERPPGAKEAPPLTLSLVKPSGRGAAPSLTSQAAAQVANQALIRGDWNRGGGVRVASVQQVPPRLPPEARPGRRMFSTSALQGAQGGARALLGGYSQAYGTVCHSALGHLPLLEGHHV

YSK4 (human) = YSK4 (human) (UniProt Q56UN5)
MAPK7 (human) = MAPK7 (human) (UniProt Q13164)
SRPK1 (human) = SRPK1 (human) (UniProt Q96SB4)
SRPK1 (human), sequence (Q96SB4 whole entry, looked up): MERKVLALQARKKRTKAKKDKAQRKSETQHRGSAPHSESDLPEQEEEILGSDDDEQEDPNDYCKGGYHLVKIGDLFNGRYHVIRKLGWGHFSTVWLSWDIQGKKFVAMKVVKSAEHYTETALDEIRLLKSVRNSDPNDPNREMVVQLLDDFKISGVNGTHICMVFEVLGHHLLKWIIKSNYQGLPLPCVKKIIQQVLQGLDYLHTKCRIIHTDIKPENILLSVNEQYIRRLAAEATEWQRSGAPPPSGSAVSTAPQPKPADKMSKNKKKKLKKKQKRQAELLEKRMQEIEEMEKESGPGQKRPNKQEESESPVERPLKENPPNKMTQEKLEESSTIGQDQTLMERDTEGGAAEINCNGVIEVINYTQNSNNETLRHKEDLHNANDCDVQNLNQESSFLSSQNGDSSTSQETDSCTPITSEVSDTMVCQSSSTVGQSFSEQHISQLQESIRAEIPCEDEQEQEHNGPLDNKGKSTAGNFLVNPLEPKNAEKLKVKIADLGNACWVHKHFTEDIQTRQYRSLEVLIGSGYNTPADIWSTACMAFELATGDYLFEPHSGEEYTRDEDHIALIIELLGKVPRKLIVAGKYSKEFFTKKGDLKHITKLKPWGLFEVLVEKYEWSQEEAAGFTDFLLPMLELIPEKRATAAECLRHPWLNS

MAP4K3 (human) = MAP4K3 (human) (UniProt Q8IVH8)
CDK4 CCND1 (human) = CDK4 CCND1 (human) (UniProt P11802+P24385)
NEK4 (human) = NEK4 (human) (UniProt P51957)
ERN1 (human) = ERN1 (human) (UniProt O75460)
CASK (human) = CASK (human) (UniProt O14936)
MAP2K7 (human) = MAP2K7 (human) (UniProt O14733)
BMPR1B (human) = BMPR1B (human) (UniProt O00238)
[2] = test system: FLT3 (human), P36888 [R834Q]
IKBKB (human) = IKBKB (human) (UniProt O14920)
MERTK (human) = MERTK (human) (UniProt Q12866)
MAPK12 (human) = MAPK12 (human) (UniProt P53778)
NTRK3 (human) = NTRK3 (human) (UniProt Q16288)
NTRK2 (human) = NTRK2 (human) (UniProt Q16620)
[3] = test system: EGFR (human), P00533 [747-751 del / S ins]
KDR (human) = KDR (human) (UniProt P35968)

NEK2 (human), sequence (P51955 whole entry, looked up): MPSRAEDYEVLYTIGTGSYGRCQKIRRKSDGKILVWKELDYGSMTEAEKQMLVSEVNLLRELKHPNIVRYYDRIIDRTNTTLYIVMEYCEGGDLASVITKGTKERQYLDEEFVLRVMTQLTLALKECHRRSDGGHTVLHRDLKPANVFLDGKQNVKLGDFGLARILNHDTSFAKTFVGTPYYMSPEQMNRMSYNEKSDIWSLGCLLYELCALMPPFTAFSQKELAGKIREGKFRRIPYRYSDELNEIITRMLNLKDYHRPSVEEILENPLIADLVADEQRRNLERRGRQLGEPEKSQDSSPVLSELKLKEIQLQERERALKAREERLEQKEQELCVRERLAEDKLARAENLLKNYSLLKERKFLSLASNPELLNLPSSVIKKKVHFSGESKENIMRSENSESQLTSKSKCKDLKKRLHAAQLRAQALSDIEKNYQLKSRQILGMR
EPHA8 (human), sequence (P29322 whole entry, looked up): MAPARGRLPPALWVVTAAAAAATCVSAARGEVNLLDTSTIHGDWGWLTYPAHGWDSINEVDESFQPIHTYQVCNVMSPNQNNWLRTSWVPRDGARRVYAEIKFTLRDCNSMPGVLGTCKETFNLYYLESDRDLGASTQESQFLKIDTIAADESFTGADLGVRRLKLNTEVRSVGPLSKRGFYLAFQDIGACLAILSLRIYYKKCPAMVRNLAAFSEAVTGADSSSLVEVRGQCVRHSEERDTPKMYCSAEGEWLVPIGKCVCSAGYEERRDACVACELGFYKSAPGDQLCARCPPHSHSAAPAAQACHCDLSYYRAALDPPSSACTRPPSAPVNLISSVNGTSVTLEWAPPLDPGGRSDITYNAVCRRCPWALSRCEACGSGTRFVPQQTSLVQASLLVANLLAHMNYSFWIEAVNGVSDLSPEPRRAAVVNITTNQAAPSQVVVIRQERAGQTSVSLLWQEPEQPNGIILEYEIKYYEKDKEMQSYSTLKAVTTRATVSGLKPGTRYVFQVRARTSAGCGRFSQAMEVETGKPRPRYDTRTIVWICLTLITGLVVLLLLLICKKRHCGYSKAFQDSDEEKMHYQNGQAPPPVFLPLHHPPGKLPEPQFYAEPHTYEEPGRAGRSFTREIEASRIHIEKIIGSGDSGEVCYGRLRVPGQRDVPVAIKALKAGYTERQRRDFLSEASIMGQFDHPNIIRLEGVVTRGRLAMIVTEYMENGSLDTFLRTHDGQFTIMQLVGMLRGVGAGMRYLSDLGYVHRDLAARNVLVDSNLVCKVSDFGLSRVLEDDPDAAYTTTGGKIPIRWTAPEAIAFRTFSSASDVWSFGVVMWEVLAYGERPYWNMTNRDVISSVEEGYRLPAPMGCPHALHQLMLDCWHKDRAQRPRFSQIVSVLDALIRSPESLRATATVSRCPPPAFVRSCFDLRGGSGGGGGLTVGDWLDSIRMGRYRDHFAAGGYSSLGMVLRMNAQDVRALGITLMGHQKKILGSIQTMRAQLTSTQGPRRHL

SMILES | kinase still bound, per cent of control (EPHA8 (human)) [%] | kinase still bound, per cent of control (SLK (human)) [%] | kinase still bound, per cent of control [1] [%] | kinase still bound, per cent of control (NEK2 (human)) [%] | kinase still bound, per cent of control (SIK2 (human)) [%] | kinase still bound, per cent of control (TLK2 (human)) [%] | kinase still bound, per cent of control (LIMK1 (human)) [%] | kinase still bound, per cent of control (MAPK13 (human)) [%] | kinase still bound, per cent of control (STK25 (human)) [%] | kinase still bound, per cent of control (DDR2 (human)) [%] | kinase still bound, per cent of control (MAK (human)) [%] | kinase still bound, per cent of control (PLK1 (human)) [%] | kinase still bound, per cent of control (EPHA4 (human)) [%] | kinase still bound, per cent of control (AXL (human)) [%] | kinase still bound, per cent of control (DDR1 (human)) [%] | kinase still bound, per cent of control (BRSK1 (human)) [%] | kinase still bound, per cent of control (MAPK15 (human)) [%] | kinase still bound, per cent of control (YSK4 (human)) [%] | kinase still bound, per cent of control (MAPK7 (human)) [%] | kinase still bound, per cent of control (SRPK1 (human)) [%] | further results
CNC(=O)c1cc(Oc2ccc(NC(=O)Nc3ccc(Cl)c(C(F)(F)F)c3)cc2)ccn1 | 3.9 | 15 | 100 | 100 | 97 | 91 | 30 | 7.6 | 80 | 14 | 41 | 100 | 42 | 7.8 | 0 | 92 | 0.85 | 0.4 | 85 | 80 | kinase still bound, per cent of control (MARK3 (human)): 74%; kinase still bound, per cent of control (DSTYK (human)): 100%; kinase still bound, per cent of control (SIK3 (human)): 100%; kinase still bound, per cent of control (MAP4K5 (human)): 7.2%; kinase still bound, per cent of control (CDKL1 (human)): 70%; kinase still bound, per cent of control (MAP4K3 (human)): 54%; kinase still bound, per cent of control (CDK4 CCND1 (human)): 65%; kinase still bound, per cent of control (NEK4 (human)): 81%; kinase still bound, per cent of control (ERN1 (human)): 74%; kinase still bound, per cent of control (CASK (human)): 90%; kinase still bound, per cent of control (MAP2K7 (human)): 88%; kinase still bound, per cent of control (BMPR1B (human)): 98%; kinase still bound, per cent of control [2]: 50%; kinase still bound, per cent of control (IKBKB (human)): 100%
CCN(CC)CCCCNc1ncc2c(n1)N(C)C(=O)N(c1c(Cl)c(OC)cc(OC)c1Cl)C2 | 100 | 100 | 100 | 100 | 100 | 100 | 100 | 100 | 100 | 30 | 100 | 100 | 100 | 100 | 0.15 | 100 | 100 | 100 | 4.1 | 100 | kinase still bound, per cent of control (MARK3 (human)): 100%; kinase still bound, per cent of control (MERTK (human)): 100%; kinase still bound, per cent of control (MAPK12 (human)): 100%; kinase still bound, per cent of control (NTRK3 (human)): 100%; kinase still bound, per cent of control (NTRK2 (human)): 100%; kinase still bound, per cent of control [3]: 100%; kinase still bound, per cent of control (SIK3 (human)): 100%; kinase still bound, per cent of control (MAP4K5 (human)): 23%; kinase still bound, per cent of control (KDR (human)): 100%; kinase still bound, per cent of control (MAP4K3 (human)): 100%; kinase still bound, per cent of control (ERN1 (human)): 100%; kinase still bound, per cent of control (BMPR1B (human)): 100%; kinase still bound, per cent of control (IKBKB (human)): 100%
COc1cc(N2CCN(C)CC2)ccc1Nc1ncc2c(n1)N(C)c1ccccc1C(=O)N2C | 100 | 100 | 100 | 100 | 100 | 100 | 100 | 100 | 100 | 100 | 100 | 9.8 | 100 | 100 | 100 | 100 | 100 | 100 | 0 | 100 | kinase still bound, per cent of control (MARK3 (human)): 100%; kinase still bound, per cent of control (MERTK (human)): 100%; kinase still bound, per cent of control (MAPK12 (human)): 100%; kinase still bound, per cent of control (NTRK3 (human)): 100%; kinase still bound, per cent of control (NTRK2 (human)): 100%; kinase still bound, per cent of control [3]: 100%; kinase still bound, per cent of control (SIK3 (human)): 100%; kinase still bound, per cent of control (MAP4K5 (human)): 100%; kinase still bound, per cent of control (KDR (human)): 100%; kinase still bound, per cent of control (MAP4K3 (human)): 100%; kinase still bound, per cent of control (ERN1 (human)): 100%; kinase still bound, per cent of control (BMPR1B (human)): 100%; kinase still bound, per cent of control (IKBKB (human)): 100%
C[C@@H](Oc1cc(-c2cnn(C3CCNCC3)c2)cnc1N)c1c(Cl)ccc(F)c1Cl | 0.2 | 0.1 | 1.8 | 81 | 12 | 100 | 2.7 | 100 | 65 | 0 | 63 | 83 | 6 | 5.3 | 0.4 | 48 | 80 | 2.4 | 0.1 | 26 | kinase still bound, per cent of control (MERTK (human)): 2.1%; kinase still bound, per cent of control (DSTYK (human)): 1.6%; kinase still bound, per cent of control (NTRK2 (human)): 0.2%; kinase still bound, per cent of control (CDKL1 (human)): 81%; kinase still bound, per cent of control (KDR (human)): 78%; kinase still bound, per cent of control (CDK4 CCND1 (human)): 51%; kinase still bound, per cent of control (NEK4 (human)): 25%; kinase still bound, per cent of control (ERN1 (human)): 42%; kinase still bound, per cent of control (MAP2K7 (human)): 83%; kinase still bound, per cent of control (BMPR1B (human)): 61%; kinase still bound, per cent of control [2]: 25%; kinase still bound, per cent of control (IKBKB (human)): 14%
